Measured values published in patent US20140045943A1, “Hydroxamic Acid Derivatives, Preparation and Therapeutic Uses Thereof” (Naurex, Inc., priority 2008, published 2014).

How the values were obtained:
[1] = system: rat retinal cell line, E1A-NR.3; assay: 3-aminopropanal neurotoxicity assay, LDH release, retinal cell cultures; type: cell-based; conditions: for % Neuroprotection (600 μM): compound 600 μM, 24-hour incubation with 400 μM 3-aminopropanal in retinal ganglion cells
Method: The rat retinal cell line, E1A-NR.3, was grown in DMEM, containing 10% FBS, in 75 cm2 flasks. […] Media was collected and assayed for LDH using the Roche assay kit. Rabbit muscle LDH was used for the standard curve. Drug treatments of aldehyde sequestering agents were as co-treatments or delayed administration of about 0.5 to about 3 hours. All drugs were dissolved in PBS.

[2] = system: rat retinal cell line, E1A-NR.3; conditions: co-treatments and delayed addition; reference (1); cited from earlier work
Male Sprague Dawley rats = assay: Trimethyltin (TMT) model, KCl-evoked glutamate release from hippocampal slices; type: in vivo, rat; conditions: AK-10 25 mg/kg, sc daily for 17 days, starting 24 hours after TMT 8 mg/kg, FIG. 3
Method: Male Sprague Dawley rats (200 g; Harlan) were administered […], sc trimethyltin (TMT) and housed individually as a result of the aggressive behavior induced by the neurotoxicant. The day following the TMT treatment, rats were started on a once daily dosing for 17 days with vehicle or AK-10 (25 mg/kg, sc) in PBS. Rats were decapitated on day 19 and the hippocampi isolated and placed in chilled Hanks Balanced Salt Solution containing 20 mM HEPES (HBSS-HEPES, 4° C.) for release experiments.
Chilled tissues were cut into 300 μm slices. A single slice was incubated in 2 ml of HBSS-HEPES in 12-well culture plates at 37° C. for 30 min. The media was discarded and the slice incubated for 2-10 min periods, each with fresh media. Next, the slices were incubated for 5 min after which the media was isolated for amino acid analyses (Pre-sample), followed by a 5 min incubation in which 50 mM KCl was added to evoke neurotransmitter release from the slices (KCl sample). Next, a final 5 min incubation in HBSS-HEPES was collected (Post sample). […]
For the GC-MS analysis of glutamate, an Agilent bench-top GC-MSD (HP6890/MSD5973) system was autotuned (41, 267 and 599) under PCI conditions with methane as the reagent gas. […] The [MH]+ ions that were monitored were 332 and 338 for endogenous GABA and its internal standard, and 490 and 495 for endogenous glutamate and its internal standard. […]

Methemoglobin = assay: Methemoglobinemia in the rat; type: in vivo; conditions: for Methemoglobin (%): 50 mg/kg, sc, 1 hr
Source text: Hydroxylamines are efficacious aldehyde sequestering agents but also may induce methemaglobinemia. Methemoglobinemia is the condition caused by the oxidation of hemoglobin into methemoglobin or a deficiency in the ability of the body to reduce methemoglobin to hemoglobin.
Table 2 sets forth a comparison of the percentage of hemoglobin that is in the form of methemoglobin under control conditions, in the presence of aldehyde sequestering agent, N-enzylhydroxylamine (NBHA) and the hydroxamic acid, AK-10.

SMILES | % Neuroprotection (600 μM) [1] [%] | protection of retinal cells from 3-aminopropanal toxicity [2] | other results
CC(N)C(=O)NO (centres unmarked) [AK-27, 2-amino-N-hydroxypropanamide] | 6 | – | –
CCC(N)C(=O)NO (centres unmarked) [AK-28, 2-amino-N-hydroxybutanamide] | 39 | – | –
CC(S)C(=O)NCC(=O)O (centres unmarked) [N-(2-mercaptopropionyl)-glycine] | – | active | –
CCC(C)C(N)C(=O)NO (centres unmarked) [AK-29, 2-amino-N-hydroxy-3-methylpentamide] | 4 | – | –
O=C1O[C@H]([C@@H](O)CO)C(O)=C1O [ascorbic acid, reference compound] | – | – | protection in the rat trimethyltin model of CA3 glutamatergic cell death (KCl-evoked glutamate release as index of CA3 neuronal loss) (Male Sprague Dawley rats): not
ONC1CCCCC1 [cyclohexylhydroxylamine] | – | protected retinal cells | –
CCCC(N)C(=O)NO (centres unmarked) [AK-25, 2-amino-N-hydroxypentamide] | 28 | – | –
CC(C)(C)NO [t-butylhydroxylamine] | – | protected retinal cells | –
CC(C)CC(N)C(=O)NO (centres unmarked) [AK-10, 2-amino-N-hydroxy-4-methylpentamide] | 100 | – | delay of treatment after 3-AP still giving reduced 24-hour LDH levels ([1]; 300 μM AK-10, delayed co-treatment 0.5 to 3 hours, 400 μM 3-AP, FIG. 2): at least 3 hours; activity in the model of aldehyde-induced cell death ([1]; Table 1, FIG. 1, FIG. 2): most efficacious analog; 24-hour LDH level versus cells exposed to 3-AP alone ([1]; co-treatment, 150 μM, 300 μM and 600 μM AK-10 with 400 μM 3-AP, FIG. 1): significantly reduce; Methemoglobin (%) (Methemoglobin): 2.2 ± 0.3%; methemoglobinemia (Methemoglobin; N-benzylhydroxylamine as positive control): lack of methemoglobinemia; protection in the rat trimethyltin model of CA3 glutamatergic cell death (KCl-evoked glutamate release as index of CA3 neuronal loss) (Male Sprague Dawley rats): prevention of TMT neurotoxicity
CC(=O)NC(CC(C)C)C(=O)NO (centres unmarked) [AK-12, 2-acetoamido-N-hydroxy-4-methylpentamide] | 10 | – | melting point: 47 to 49 °C
CC(C)C(N)CC(=O)NO (centres unmarked) [AK-26, 3-amino-N-hydroxy-4-methylpentamide] | 58 | – | –
ONCc1ccccc1 [NBHA, N-benzylhydroxylamine, reference compound] | – | protected retinal cells | Methemoglobin (%) (Methemoglobin): 22.6 ± 3.1%
